Experimental data as given in patent US8927506B2, “Acetates of 2-deoxy monosaccharides with anticancer activity” (Board of Regents, The University of Texas System, priority 2008, dated 2015).

What was measured:
[1] = tested on: pancreatic Colo357-FG cell line; assay: In vitro activity in pancreatic Colo357-FG cell line; type: cell-based; settings: COLO 357/FG; Colo357FG pancreatic cell line; concentration reducing cell viability to half
Text: As used herein, reference to “IC50” is intended to refer to the concentration of a compound or composition that reduces the viability of cells to half the original level. In broader terms, IC50 can refer to half the maximal inhibitory concentration of a substance for inhibiting various biological processes.
In vitro activity in pancreatic Colo357-FG cell line is provided below in Table 1.

[2] = Preliminary biodistribution / pharmacokinetic study by oral gavage, 2-DG content in plasma and brain by LC/MS/MS; type: in vivo; settings: CD-1 mice
Text: Analytical methodologies (LC/MS/MS) were developed that are capable of quantifying these acetate sugars and the resulting liberation of 2-DG in various biomatrices (plasma and brain tissue). Using this analytical method preliminary biodistribution studies were undertaken in CD-1 mice to examine the pharmacokinetics of these novel agents.
Briefly, four animals per treatment group were given equivalent doses of either 2-DG, the compound of Example 6 (6-O-acetate of 2-DG) or the compound of Example 4 (4,6-di-O-acetate of 2-DG) by oral gavage using the same vehicle. Individual groups of animals were then sacrificed at 0.25, 0.5, 1, 2 and 4 hours following dose administration. From each animal plasma and brain tissues were harvested and then analyzed for 2-DG content by LC/mass spectrometry.

| Structure (SMILES) | IC50 [1] [mM] | duration of active concentrations of 2-DG at the site of action (brain) relative to 2-DG alone ([2]; brain) | highest attained brain tissue concentration of 2-DG ([2]; at 2 hrs after administration) [μg/gm] |
| --- | --- | --- | --- |
| CC(=O)OCC1OC(O)CC(OC(C)=O)C1O (stereo not shown) [Example 5] | 1.6 | – | – |
| CC(=O)OC1CC(O)C(O)C(CO)O1 [Example 1, 1-O-Acetyl-2-deoxy-D-glucose] | 11.9 | – | – |
| CC(=O)OCC1OC(O)CC(O)C1OC(C)=O [Example 4, 4,6-Di-O-acetyl-2-deoxy-D-glucose] | 1.7 | – | – |
| CC(=O)OCC1OC(O)CC(O)C1O [Example 6, 6-O-acetyl-2-deoxy-D-glucose] | – | more than twice as long | – |
| OCC1OC(O)CC(O)C1O (stereo not shown) [Example 2-DG, 2-deoxy-glucose, reference compound] | 9.7 | – | 12 |
| CC(=O)OCC1OC(OC(C)=O)CC(O)C1O (stereo not shown) [Example 3] | 17.2 | – | – |
